According to patent publication US6518302B1, “Remedies” (Takara Shuzo Co., Ltd., priority 1999, dated 2003):

What was measured:
[1] = tested on: Human promyelocytic leukemia HL-60 cells; assay: Antiproliferation activity against HL-60 cells (MTT method); type: cell-based; details: 48 hour incubation; for IC50: Homo sapiens, HL-60 cells, read-out: IC50, concentration at which 50% of the proliferation is inhibited
Protocol: Human promyelocytic leukemia HL-60 cells (ATCC CCL-240) were cultured at 37° C. in RPMI 1640 medium (Gibco) containing 10% of fetal calf serum (JRH Bioscience) which had been treated at 56° C. for 30 minutes, and suspended in the same medium at a concentration of 5000 cells/90 μl. Each 90 μl portion of the suspension was distributed into each well of a 96-well plate (Falcon). To the suspension in each well was added 10 μl of one the following samples, and incubated at 37° C. in the presence of 5% CO2. The samples were 2-, 4-, 8-, 16-, 32-, 64- or 128-dilutions of filter-sterilized 200 mM aqueous solution of the compound (2) obtained in Example 1, 50 mM aqueous solution of the compound (7), 50 mM aqueous solution of the compound (9), 100 mM aqueous solution of the compound (11), 100 mM aqueous solution of the compound (14), 20 mM aqueous solution of the compound (17), 12.5 mM aqueous solution of the compound (19) or 12.5 mM aqueous solution of the compound (21) with sterile water, as well as water. After 48 hour from the initiation of the incubation, the numbers of viable cells calculated based on the absorbance measured according to the MTT method as described in “Apoptosis Jikken Protocol” (Syuzyun-sha, Seiichi Tanuma, ed., pp. 156 (1994)) were compared each other.

[2] = tested on: heme oxygenase 1 protein in RAW264.7 cells; assay: Heme oxygenase 1 induction (Western blot); type: cell-based; set-up: key: − represents no band observed; increase in the intensity of the band is represented as follows: +−<+<++; increase in the intensity of the band is represented as follows: +−<+<++; increase in the intensity of the band is represented as follows: +−<+<++; details: 12 hours
Protocol: RAW264.7 cells (ATCC TIB 71) were suspended in Dulbecco's modified Eagle's medium (Bio Whittaker, 12-604F) containing 10% fetal calf serum (Gibco) at a concentration of 3×10^5 cells/ml. 5 ml of the suspension was added to each well of a 6-well microtiter plate and the plate was incubated at 37° C. overnight in the presence of 5% CO2. 50 μl of a solution containing the compound (11) or the compound (14) at a concentration of 10 mM or 5 mM in water, 5 μl of a solution containing the compound (7) at a concentration of 50 mM or 25 mM in dimethyl sulfoxide, or 5 μl of a solution containing the compound (17) at a concentration of 100 mM or 50 mM in dimethyl sulfoxide was added to the well. The plate was incubated for 12 hours. A positive control for heme oxygenase 1 induction in which 5 μl of 3 mM solution of 15-deoxy-Δ12,14 prostaglandin J2 (Cayman Chemical, 18570) in dimethyl sulfoxide was added, and a negative control in which water was added were provided. The cells were recovered by detaching the cells from the plate using a scraper and suspended in 0.1 M tris-HCl buffer (pH 7.5) containing 0.05 mM pepstatin A (Sigma, P5318), 0.2 mM leupeptin (Sigma, L2884), 1 mM phenylmethylsulfonyl fluoride (Nacalai Tesque, 273-27), 10 mM ethylenediaminetetraacetic acid disodium salt and 0.1% Triton X-100. A supernatant obtained by centrifuging the suspension after freezing and thawing was used as a protein fraction. The content of protein in the protein fraction was determined using Micro BCA Protein Assay Reagent (a product of Pierce sold by Takara Shuzo, P7411). A sample from the protein fraction prepared as described above was mixed with an equal volume of 0.125 M tris-hydrochloride buffer (pH 6.8) containing 4% sodium lauryl sulfate (SDS), 2% 2-mercaptoethanol, 0.001% Bromophenol Blue and 20% glycerol. After treatment at 100° C. for 5 minutes, a portion corresponding to 10 μg of protein was loaded on 12.5% SDS-polyacrylamide gel and electrophoresed at a constant current of 20 mA. After electrophoresis, the gel was transferred to a PVDF membrane (Millipore, IPVH000 10) at a constant voltage of 15 V for 25 minutes using a blotting buffer (containing 48 mM tris, 39 mM glycine, 20% methanol and 0.0375% SDS) and Trans-Blot SD Cell Semi-Dry blotting apparatus (Bio-Rad) according to the attached protocol. After transferring, the PVDF membrane was blocked in a solution of Block Ace (Dainippon Pharmaceutical, UK-B25) at 4 C overnight. After blocking, the membrane washed three times in phosphate buffered saline containing 0.1% Tween 20 for 15 minutes with gentle shaking. The membrane was reacted in phosphate buffered saline containing 10% Block Ace, 0.1% Tween 20 and 200 ng/ml of anti-heme oxygenase 1 antibody (N-19; Santa Cruz, sc-7696) at room temperature for 1 hour with gentle shaking, and then washed three times in phosphate buffered saline containing 0.1% Tween 20 for 15 minutes with gentle shaking. The membrane was reacted in phosphate buffered saline containing 10% Block Ace, 0.1% Tween 20 and 0.1% peroxidase-labeled rabbit anti-goat IgG (H+L) antibody (Zymed, 61-1620) at room temperature for 1 hour with gentle shaking, and then washed five times in phosphate buffered saline containing 0.1% Tween 20 for 15 minutes with gentle shaking. The PVDF membrane was stained using Western Blot Chemiluminescence Reagent Plus (a product of NEN Life Science Products sold by Daiichi Pure Chemicals, NEL103) according to the attached protocol and exposed to an X-ray film (Kodak, CAT165 1454). After exposure, the film was developed using FPM800 (Fuji Film).
The intensity of the band depended on the concentration of the sample. In the table, the intensity of the band for heme oxygenase 1 protein is expressed by the mark +. Specifically, − represents no band observed, and increase in the intensity of the band is represented as follows: +−<+<++.

O=C[C@H](O)[C@H]1OC[C@@H](O)[C@@H]1OC(=O)c1ccccc1 [Compound (7), 4-O-benzoyl-3,6-anhydro-D-galactose]
antiproliferation activity against HL-60 cells [1]: exhibited antiproliferation activities
IC50 [1]: 104 µM
Intensity of band for heme oxygenase 1 protein ([2]; final concentration of 25 μM): +
Intensity of band for heme oxygenase 1 protein ([2]; final concentration of 50 μM): +

OCC1OC(OC2C(CO)OC(OC3C(CO)OC(OC4C(O)COC4C(O)C(O)O)C(O)C3O)C(O)C2O)C(O)C(O)C1O [Compound (14), 4-O-β-maltotoriosyl-3,6-anhydro-D-galactose]
antiproliferation activity against HL-60 cells [1]: exhibited antiproliferation activities
IC50 [1]: 113 µM
Intensity of band for heme oxygenase 1 protein ([2]; final concentration of 50 μM): +
Intensity of band for heme oxygenase 1 protein ([2]; final concentration of 100 μM): + +

O=C[C@H](O)[C@H]1OC[C@@H](O)[C@@H]1OCc1ccccc1 [Compound (17), 4-O-benzyl-3,6-anhydro-D-galactose]
antiproliferation activity against HL-60 cells [1]: exhibited antiproliferation activities
IC50 [1]: 205 µM
Intensity of band for heme oxygenase 1 protein ([2]; final concentration of 50 μM): +
Intensity of band for heme oxygenase 1 protein ([2]; final concentration of 100 μM): + +
